Measured values reported in the NIST ThermoML archive (doi:10.1021/acs.jced.6b00957).
± gives the expanded uncertainty stated by the source.

Experiments:
[1] = Molar enthalpy of transition or fusion; conditions: Crystal; DSC
[2] = Crystal; DTA

O=C(O)c1c(O)cccc1O [2,6-dihydroxybenzoic acid]
Molar enthalpy of transition or fusion [1]: 6.05 ± 0.382 kcal/mol
Normal melting temperature [2]: 167.1 ± 4 °C
